From a melting point compilation (Tetko et al.) come the findings set out here.

One may read the melting point as the temperature, or range, at which the solid turns liquid.

Some results are limits rather than exact numbers.

Turning to `O=C1NC(=O)C2CC(c3ccccc3)CCC12` (configuration not stated), the melting point lay within 134 to 136 °C. `CN(C)CCOC1=Cc2ccccc2Sc2ccc(Cl)cc21` registered a melting point of 90 °C. Turning to `Cc1c(C(=O)Cl)cnn1-c1ccc(Cl)cc1`, the melting point turned out to be 115 °C. Consider `NC(=S)Nc1cccc2ccccc12`, for which the melting point fell in the range of 193 to 197 °C.

In the case of `Cn1c(=O)c(C2=NNC(=O)C2=CNc2cccc3ccccc23)c(O)c2ccccc21`, the melting point turned out to be 292 °C. Consider `ClCC1C(CCl)C2(Cl)C(Cl)=C(Cl)C1(Cl)C2(Cl)Cl` (configuration not stated), for which the melting point was 105 °C. `O=C(O)c1c(C(F)(F)F)ccnc1Cl` showed a melting point of 159 °C.

As to `Nc1c(I)cc(I)cc1C(=O)O`, the melting point lay within 241 to 243 °C.

Compound `COC1(OC)CC[C@]2(C)[C@H]3CC[C@]4(C)CCC[C@@]4(O)[C@@H]3CC[C@@]2(C)C1` returned a melting point of 146 to 147 °C. On to `Cc1[nH]c2ccccc2c1CC(=O)O`, for which the melting point stood at 200 °C. Take `Cc1ccc(-n2c(C=Cc3ccc([N+](=O)[O-])cc3)nc3cc([N+](=O)[O-])ccc32)cc1`: the melting point is 267 °C. The figure for `O=C(CCCCl)c1ccc(Br)cc1` is 37 °C. In turn, `Cc1c(C(=O)CBr)sc2ccc(Cl)cc12` yielded a melting point of 154 to 156 °C. Compound `O=C1NC(CCO)C(=O)NC1CCO` (configuration not stated) returned a melting point of 188 to 192 °C. Under `Cc1ccc(NN=C2C(=O)NN=C2c2c(O)c3ccccc3n(C)c2=O)cc1` stands 218 °C.

The compound `Oc1cc(C(F)(F)F)nc2ccc(Cl)cc12` came in with a melting point of 280 to 289 °C. Under `Cc1cccc(F)c1` stands -87 °C; under `NS(=O)(=O)c1cc(F)ccc1F`, 141 °C; under `C#CC(C)(CC)OC(N)=O` (configuration not stated), 55.8 °C. As to `C1CCC2OC2C1` (configuration not stated), the melting point was -40 °C. The compound `CSc1nc(N)c(C(C)=O)s1` came in with a melting point of 159 to 160 °C. `O=C1C2CC=CCC2C(=O)N1SC(Cl)(Cl)Cl` (configuration not stated): the melting point was determined as 178 °C. In the case of `CC(C)=NN(c1ccccc1)P(=O)(N1CC1)N1CC1`, the melting point was 120 °C. With `O=C(O)Cc1ccccc1[N+](=O)[O-]`, the melting point is 141 °C. Under `CCCCCCCCCCCCCC(CCCCCCCCCC)CCCCCCCCCC` stands 10.8 °C.

`Nc1ccc(C(=O)NC(CCC(=O)O)C(=O)O)cc1` (configuration not stated) displayed a melting point of 173 °C.

Compound `N=C(N)NCC(=O)O` had a melting point of 300 °C. Under `COc1ccc(Br)cc1C#N` stands 91 °C; under `OCc1ccc(O)cc1`, 124 °C. For `COc1ccc(C(=O)C2=NOC3C(=O)N(c4ccc(Br)cc4)C(=O)C23)cc1` (configuration not stated), the melting point worked out at 124 °C.

For the compound `CC(CCC(=O)O)n1nc2ccccc2n1` (configuration not stated), the melting point came to 73 °C. As to `C[Si](C)(Cl)O[Si](C)(C)Cl`, the melting point was -37.5 °C. The figure for `CCCCCCC(O)CC` (configuration not stated) is 22 °C. `CC(C)(C)c1ccc(-c2noc(CCl)n2)cc1` returned a melting point of 46 to 48 °C.

Consider `CC(C)(C)C(=O)OCOC(=O)C1N2C(=O)C(N=CN3CCCCCC3)C2SC1(C)C` (configuration not stated), for which the melting point was determined as 119 °C. On to `O=C1c2ccccc2C(=O)c2cc(Br)ccc21`, for which the melting point was found to be 206 °C. `O=C1Cc2c1cccc2[N+](=O)[O-]`: the melting point fell in the range of 115 to 117 °C. `CCSC(SCC)C(O)C(O)C(O)CO` (configuration not stated) gave a melting point of 127 °C. `CN(C)C(=O)COC(=O)c1ccccc1` yielded a melting point of 81.5 °C. In turn, `O=C(O)/C=C/c1c[nH]c2ccccc12` came in with a melting point of 184 to 187 °C. In turn, `c1ccc(OCc2nnc3sc(-c4cccc5ccccc45)nn23)cc1` came in with a melting point of 134 °C. `CC(C)(C)OC(=O)N1CCN(c2ccc(CO)cc2)CC1` displayed a melting point of 109 to 111 °C. The figure for `CNc1ccc(N)c2c1C(=O)c1ccccc1C2=O` is 193 °C.

Regarding `COc1ccccc1C(=O)Oc1ccc(C(=O)/C=C/c2ccc(N(C)C)cc2)cc1`, the melting point was 99 °C.

Regarding `COC(=O)c1sccc1N`, the melting point lay within 66 to 67 °C. With `Nc1ccc2scnc2c1`, the melting point fell in the range of 55 to 59 °C. The figure for `NC(Cc1ccc(F)c(F)c1)C(=O)O` (racemic) is 237 to 240 °C. Under `CN(C)CCc1c[nH]c2ccc(Cn3cncn3)cc12` stands 179 °C.

`COc1ccccc1C1Nn2c(COc3ccccc3)nnc2S1` (configuration not stated) showed a melting point of 126 °C. The figure for `Cc1cnnc2c1-c1nonc1CC2` is 155 to 158 °C; for `N=C1C=C(NC(=O)c2ccccc2)/C(=N/C(=O)c2ccccc2)C=C1NC(=O)c1ccccc1` it is > 330 °C. Turning to `Cn1cnc(N)c2ncnc1-2`, the melting point worked out at 300 °C. Compound `Cc1cc(Br)c(N)c(C(=O)O)c1` gave a melting point of 204 °C.

Consider `O=Cc1ccc(-c2cccs2)cc1`, for which the melting point lay within 67 to 68 °C.

`Cc1cc([N+](=O)[O-])ccc1C(=O)O`: the melting point turned out to be 154 °C.

`CCCCc1c(C)nc(NCC)nc1O` had a melting point of 160 °C. `CCOC(=O)c1nc(-c2ccc(S(=O)(=O)Cl)s2)no1` came in with a melting point of 114 to 115 °C. Under `NC(=O)COc1cccc(Cl)c1` stands 123 to 126 °C; under `N#Cc1ccc(C=NNC(N)=S)cc1`, 243 to 247 °C; under `OCc1cccc(N2CCOCC2)c1`, 51 to 54 °C.

For the compound `CCOc1cc(NC(C)=O)ccc1C(=O)OC`, the melting point stood at 148 °C. Under `COc1cc(C(=O)NCCCCCC(=O)O)cc(OC)c1OC` stands 121 °C; under `CS(=O)(=O)c1ccc2c(c1)N(CCCN1CCC(C(N)=O)CC1)c1ccccc1S2`, 170 °C. In the case of `OCC(F)(F)C(F)(F)C(F)(F)C(F)(F)C(F)(F)C(F)(F)C(F)(F)C(F)(F)C(F)(F)C(F)F`, the melting point was in the range of 95 to 97 °C. `N[C@@H](Cc1ccc(OCc2ccccc2)cc1)C(=O)O` gave a melting point of 259 °C. For the compound `Cc1cc(C)c(NC(=O)CN(CC(=O)O)CC(=O)O)c(C)c1`, the melting point was in the range of 218 to 221 °C. In turn, `CNCc1ccc(N2CCN(C(=O)OC(C)(C)C)CC2)cc1` yielded a melting point of 60 to 62 °C. `O=[N+]([O-])c1cc(Cl)ccc1Br`: the melting point was 70 °C. In turn, `Brc1ccc(Oc2ccc(Br)c(Br)c2)cc1Br` yielded a melting point of 94 to 95 °C.

For the compound `NC(=O)Nc1ccccn1`, the melting point lay in the range of 173 to 175 °C.

`O=C(O)c1ccc(-c2cncnc2)cc1`: the melting point fell in the range of 316 to 317 °C. As to `c1ccc2sc(Cc3nc4ccccc4s3)nc2c1`, the melting point lay in the range of 92 to 96 °C. Turning to `CC(=O)OC1CCC2(C)C3CCC4(C)C(C(C)CCCC(C)C)CCC4C3CC(OC(C)=O)C2(O)C1` (configuration not stated), the melting point stood at 164 °C. Compound `NC(=O)c1ccc(C(N)=O)cc1` showed a melting point of 332 °C. Under `N#CC1(C(=O)c2ccccc2)C(c2ccc(F)cc2)NC(=O)NC1c1ccc(F)cc1` (configuration not stated) stands 226 to 227 °C; under `CC(C)OC(=O)C1(S(=O)(=O)c2ccc([N+](=O)[O-])cc2)CCCCCC1`, 83.5 °C; under `CC(C)=CCCC(C)C1CCC2(C)C3=C(CCC12C)C1(C)CCC(O)C(C)(C)C1CC3` (configuration not stated), 140 °C.
